Assay [1] concerns XBP-1. As to the kind of experiment: Metabolic pulse labelling and immunoprecipitation of endogenous XBP-1 proteins. Format: cell-based, mouse. On the procedure: Mouse embryonic fibroblasts and ES cells lacking IRE1 activity (IRE1α−/− or IRE1α, IRE1β−/−) and PERK−/−fibroblasts were cultured as previously described (Harding et al., “Regulated Translation Initiation Controls Stress-Induced Gene Expression in Mammalian Cells,” Mol. Cell 6:1099-1108 (2000); and Urano et al., “Coupling of Stress in the Endoplasmic Reticulum to Activation of JNK Protein Kinases by Transmembrane Protein Kinase IRE1,” Science 287:664-666 (2000), which are hereby incorporated by reference in their entirety). Cells were treated with tunicamycin (2.5 μg/ml, Calbiochem), thapsigargin (100 nM, Sigma), dithiothreitol (2 mM, Sigma) or the proteasome inhibitor MG132 (25 μM, Calbiochem) as indicated. To prepare B-cell blasts, cells were teased from crushed adult mouse spleen and cultured in the presence of 25 μg/ml E. coli lipopolysaccharide.
Newly synthesized proteins were labeled in vivo with ^35S-methionine and ^35S-cysteine (500 μCi/ml, Translabel, ICN Biochemicals). After removal of the labeling media cells were washed and incubated in complete media for cold-chase. […] Incorporation of radiolabel was quantified by phosphoimager analysis. In calculating the relative synthesis rates of 54 kDa XBP-1 and 33 kDa XBP-1 the relative incorporation of label was corrected for differences in the content of methionine (7:6) and cysteine (4:3) predicted for the two proteins. […]

The subject of assay [2] is XBP-1. The experiment in a line: XBP-1 immunoblot during in vitro differentiation of B-cells to plasma cells. The conditions noted are these: mouse spleen cells, 25 μg/ml E. coli lipopolysaccharide. Type of assay: cell-based. On the procedure:
(§1) Mouse embryonic fibroblasts and ES cells lacking IRE1 activity (IRE1α−/− or IRE1α, IRE1β−/−) and PERK−/−fibroblasts were cultured as previously described (Harding et al., “Regulated Translation Initiation Controls Stress-Induced Gene Expression in Mammalian Cells,” Mol. Cell 6:1099-1108 (2000); and Urano et al., “Coupling of Stress in the Endoplasmic Reticulum to Activation of JNK Protein Kinases by Transmembrane Protein Kinase IRE1,” Science 287:664-666 (2000), which are hereby incorporated by reference in their entirety). Cells were treated with tunicamycin (2.5 μg/ml, Calbiochem), thapsigargin (100 nM, Sigma), dithiothreitol (2 mM, Sigma) or the proteasome inhibitor MG132 (25 μM, Calbiochem) as indicated. […]
(§2) XBP-1 proteins in whole cell extracts were detected by immunoblot of 9% PAGE-SDS using a rabbit polyclonal serum directed to residues 97-267 common to both 54 kDa and 33 kDa XBP-1 proteins (sc-7160, Santa Cruz Biotechnology). XBP-1 proteins in transfected cells were detected by a monoclonal antibody to the FLAG epitope tag (Kodak-IBI). CREB and CHOP were detected as described previously (Harding et al., “Regulated Translation Initiation Controls Stress-Induced Gene Expression in Mammalian Cells,” Mol. Cell 6:1099-1108 (2000), which is hereby incorporated by reference in its entirety).

Assay [3] has as its system XBP-1. As to the kind of experiment: Immunoblot of FLAG-tagged XBP-1 in transfected HEK 293T cells. Format: cell-based, human. The conditions noted are these: HEK 293T cells transfected with XBP-1^up. The protocol:
as §1, §2
In general terms: A western blot detects proteins with antibodies after separation by electrophoresis.

In assay [4] the test system is hsp-4::gfp. As to the kind of experiment: hsp-4::gfp transcriptional reporter induction in C. elegans (UPR). Format: in vivo. The conditions noted are these: gut and hypodermis; plates containing 5 μg/ml tunicamycin. From the text:
A 1.1 kilobase (Kb) fragment of C. elegans genomic DNA immediately 5′ of the predicted initiation ATG of hsp-4 was amplified by PCR and ligated in-frame with GFP in the plasmid pPD95.75 (gift of Andy Fire, Carnegie Institute of Washington). The hsp-4::gfp(zcIs4) V strain was generated by co-injecting the hsp-4::gfp clone with the lin-15 rescuing plasmid, pSK1 (Clark et al., “The Caenorhabditis elegans Locus Lin-15, a Negative Regulator of a Tyrosine Kinase Signaling Pathway, Encodes Two Different Proteins,” Genetics 137:987-997 (1994), which is hereby incorporated by reference in its entirety), into lin-15(n765ts) animals and then integrating the extrachromosomal array with ultraviolet/trimethylpsoralen (UV/TMP) treatment. The F2 progeny of ethylmethane sulphonate (EMS)-treated hsp-4::gfp(zcIs4)V animals were screened for mutants with high levels of GFP expression to identify mutations that constitutively induce the UPR. Several mutations were recovered, including upr-1(zc6)X, which induced a high level of GFP expression in the posterior gut. To isolate mutations that blocked hsp-4::gfp induction, the F2 progeny of EMS-treated hsp-4::gfp(zcIs4) V; upr-1(zc6)X animals were screened for mutants with a reduced GFP signal. The mutations were mapped using standard methods. […]

Residues, ends and D or L forms follow the SMILES beside them. *: point of attachment. Cbz = O=C(OCc1ccccc1)*

On to `CC(C)C[C@@H](C=O)NC(=O)[C@H](CC(C)C)NC(=O)[C@H](CC(C)C)NC(=O)OCc1ccccc1` [proteasome inhibitor, MG132] (Cbz-Leu-Leu-Leu-aldehyde), for which the “levels of 33 kDa XBP-1 protein” value in assay [1] (mouse fibroblasts, MG132 25 μM) is reported as “increased further”.

Turning to bacterial lipopolysaccharide, the “induction of 54 kDa XBP-1 protein” value in assay [2] was “induced”.

For tunicamycin, the “expression of FLAG-tagged 54 kDa XBP-1 protein” value in assay [3] is on record as “expressed high levels of FLAG-tagged 54 kDa protein”. Also, the “hsp-4::gfp expression” value in assay [4] was “strongly induced”. Further, in assay [1] (pulse-labeled wildtype cells, tunicamycin 2.5 μg/ml), the “accumulation of endogenous 54 kDa XBP-1” value is on record as “accumulated to high levels”.

Values taken from patent publication US7666587B2, “Method of screening test substances for treating or preventing a disease mediated by plasma cells” (priority 2002, dated 2010).
